≈ marks a conversion by molar mass, not a printed value.
Tests used:
Enterococcus faecalis = assay: microbe, parasite or virus in culture; details: ATCC 29212
HepG2 = assay: cells; details: Homo sapiens, HepG2, 72 h
Staphylococcus aureus [1] = assay: microbe, parasite or virus in culture; details: ATCC 49951
Staphylococcus aureus [2] = assay: microbe, parasite or virus in culture; details: ATCC 49951; remark: listed apart in the source
physchem [3] = assay: physchem
Staphylococcus aureus [4] = assay: microbe, parasite or virus in culture; details: ATCC 49951; remark: listed apart in the source
Streptococcus pneumoniae = assay: microbe, parasite or virus in culture; details: ATCC 49619
in vitro [5] = details: human, plasma
in vitro [6] = details: Sprague-Dawley, rat, plasma
in vitro [7] = details: CD1, mouse, plasma
K562 = assay: cells; details: Homo sapiens, K562, 72 h
physchem [8] = details: buffer, pH 7
in vitro [9] = details: human, Caco-2
in vitro [10] = details: human, Caco-2; remark: listed apart in the source
in vivo [11] = details: rat, po, 5 mg/kg
in vivo [12] = details: rat, 5 mg/kg
physchem [13] = details: octanol/water, pH 7.4
in vivo [14] = details: rat, 5 mg/kg; remark: listed apart in the source
in vivo [15] = details: rat, po, 5 mg/kg; remark: listed apart in the source
in vivo [16] = details: rat, po, 5 mg/kg; remark: listed apart in the source
hERG (KCNH2) = hERG (KCNH2) (Homo sapiens, UniProt Q12809); assay: in vitro; details: CHO-K1 cells expressing human ERG
in vivo [17] = details: rat, iv
in vivo [18] = details: rat, po, 5 mg/kg; remark: listed apart in the source
in vivo [19] = details: mouse, po, 5 mg/kg
in vivo [20] = details: dog, po, 1 mg/kg
in vivo [21] = details: mouse, po, 5 mg/kg; remark: listed apart in the source
in vivo [22] = details: mouse, po, 5 mg/kg; remark: listed apart in the source
in vivo [23] = details: dog, po, 1 mg/kg; remark: listed apart in the source
in vivo [24] = details: dog, iv, 0.125 mg/kg
in vivo [25] = details: dog, po, 1 mg/kg; remark: listed apart in the source
in vivo [26] = details: mouse, 5 mg/kg
in vivo [27] = details: mouse, po, 5 mg/kg; remark: listed apart in the source
in vivo [28] = details: mouse, iv
in vivo [29] = details: dog, 1 mg/kg
in vivo [30] = details: rat, iv, 3.35 mg/kg
in vivo [31] = details: rat, iv, 3.35 mg/kg; remark: listed apart in the source
in vivo [32] = details: rat, po, 3.35 mg/kg
in vivo [33] = details: rat, po, 3.35 mg/kg; remark: listed apart in the source
in vivo [34] = details: rat, po, 3.35 mg/kg; remark: listed apart in the source
in vivo [35] = details: rat, po, 3.35 mg/kg; remark: listed apart in the source
physchem [36] = assay: physchem; remark: listed apart in the source
in vivo [37] = details: rat, po, 3 mg/kg
in vivo [38] = details: rat, po, 3 mg/kg; remark: listed apart in the source
in vivo [39] = details: rat, iv, 1 mg/kg

hERG (KCNH2), sequence (Q12809 whole entry): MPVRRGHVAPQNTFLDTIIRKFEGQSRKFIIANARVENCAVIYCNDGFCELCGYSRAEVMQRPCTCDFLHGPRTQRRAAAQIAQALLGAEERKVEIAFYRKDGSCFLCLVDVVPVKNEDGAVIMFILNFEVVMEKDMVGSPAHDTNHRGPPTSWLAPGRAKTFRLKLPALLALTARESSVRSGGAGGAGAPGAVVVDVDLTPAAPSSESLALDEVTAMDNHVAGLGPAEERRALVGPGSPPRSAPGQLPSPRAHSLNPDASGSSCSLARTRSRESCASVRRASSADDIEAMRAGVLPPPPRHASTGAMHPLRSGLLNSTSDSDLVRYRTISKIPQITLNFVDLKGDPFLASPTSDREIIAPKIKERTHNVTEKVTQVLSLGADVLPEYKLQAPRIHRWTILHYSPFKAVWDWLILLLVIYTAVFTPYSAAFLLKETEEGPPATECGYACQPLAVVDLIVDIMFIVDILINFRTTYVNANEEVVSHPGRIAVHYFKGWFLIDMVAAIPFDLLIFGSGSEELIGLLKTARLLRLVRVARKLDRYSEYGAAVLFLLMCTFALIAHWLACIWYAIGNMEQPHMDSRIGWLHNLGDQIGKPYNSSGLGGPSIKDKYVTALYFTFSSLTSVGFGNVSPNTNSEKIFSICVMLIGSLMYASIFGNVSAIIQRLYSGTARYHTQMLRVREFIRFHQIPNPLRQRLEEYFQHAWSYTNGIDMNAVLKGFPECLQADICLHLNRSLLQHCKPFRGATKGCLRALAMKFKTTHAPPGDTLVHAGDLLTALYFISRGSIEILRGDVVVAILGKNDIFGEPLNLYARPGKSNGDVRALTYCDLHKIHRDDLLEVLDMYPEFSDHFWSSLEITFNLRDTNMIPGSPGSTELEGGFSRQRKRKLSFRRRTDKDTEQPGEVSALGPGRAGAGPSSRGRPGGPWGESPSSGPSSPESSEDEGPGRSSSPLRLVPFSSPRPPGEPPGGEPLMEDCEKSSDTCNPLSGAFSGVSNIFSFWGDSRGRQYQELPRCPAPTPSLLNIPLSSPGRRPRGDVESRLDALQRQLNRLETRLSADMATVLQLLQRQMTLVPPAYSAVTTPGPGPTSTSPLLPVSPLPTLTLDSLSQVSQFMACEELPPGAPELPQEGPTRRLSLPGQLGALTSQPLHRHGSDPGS

Compound	MIC (Enterococcus faecalis) [µg/mL]	EC50 (HepG2) [µM]	MIC (Staphylococcus aureus [1]) [µg/mL]	MIC (Staphylococcus aureus [2]) [µg/mL]	pKa (physchem [3])	MIC (Staphylococcus aureus [4]) [µg/mL]	MIC (Streptococcus pneumoniae) [µg/mL]	fraction unbound at 4 h, 10 µM (in vitro [5])	fraction unbound at 4 h, 10 µM (in vitro [6])	fraction unbound at 4 h, 10 µM (in vitro [7])	EC50 (K562) [µM]	solubility at 24 h (physchem [8]) [µg/mL]	Papp A→B at 2 h, 10 µM (in vitro [9]) [×10⁻⁶ cm/s]	Cmax at 24 h (in vivo [11]) [nM]	Vd at 24 h (in vivo [12]) [L/kg]	logD (physchem [13])	AUC(0-inf) at 24 h (in vivo [15]) [µM·h]	bioavailability at 24 h (in vivo [16]) [%]	half-life at 24 h (in vivo [17]) [h]	Tmax at 24 h (in vivo [18]) [h]	further results
Cc1c(N2CC[C@@H]([C@H](C)N)C2)c(F)cc2ccc(=O)n(C3CC3)c12	0.125 (≈ 0.379 µM)	93	0.06 (≈ 0.182 µM)	≤ 0.06	9.6	≤ 0.03	≤ 0.03														
Cc1c(N2CC[C@@H]([C@H](C)N)C2)c(F)cc2cc(C(=O)O)c(=O)n(C3CC3)c12	0.25 (≈ 0.669 µM)	> 100	2 (≈ 5.36 µM)	0.125 (≈ 0.335 µM)	5.2	2 (≈ 5.36 µM)	0.015 (≈ 0.0402 µM)	0.54	0.54	0.66	> 100										
C[C@H](N)[C@@H]1CCN(c2c(F)cc3cc(C(=O)O)c(=O)n4c3c2OC[C@@H]4C)C1	0.25 (≈ 0.666 µM)	> 100	2 (≈ 5.33 µM)	0.125 (≈ 0.333 µM)	5	1 (≈ 2.66 µM)	≤ 0.03	0.8	0.72	0.94	> 100	675 (≈ 1800 µM)	2.7	540	1.75	-1.1	1.6	66	3.02	0.83	efflux ratio (in vitro [10]): 1.7; clearance at 24 h (in vivo [14]): 18.5 mL/min/kg; inhibition at 300 µM (hERG (KCNH2)): 8.3%
C[C@H]1COc2c(N3CC[C@@H](C4(N)CC4)C3)c(F)cc3cc(C(=O)O)c(=O)n1c23	0.25 (≈ 0.645 µM)	> 100	2 (≈ 5.16 µM)	0.25 (≈ 0.645 µM)	4.9	0.5 (≈ 1.29 µM)	0.06 (≈ 0.155 µM)	0.76	0.63	0.87	> 100	1270 (≈ 3270 µM)	20	1350	1.09	-0.9	8.68	65	4.64	2.7	bioavailability at 24 h (in vivo [19]): 92%; efflux ratio (in vitro [10]): 0.9; Tmax at 24 h (in vivo [20]): 4 h; Cmax at 24 h (in vivo [21]): 490 nM; clearance at 24 h (in vivo [14]): 3.26 mL/min/kg; Tmax at 24 h (in vivo [22]): 2 h; Cmax at 24 h (in vivo [23]): 1350 nM; half-life at 24 h (in vivo [24]): 9.95 h; AUC(0-inf) at 24 h (in vivo [25]): 19 µM·h; Vd at 24 h (in vivo [26]): 1.88 L/kg; inhibition at 300 µM (hERG (KCNH2)): 27%; AUC(0-inf) at 24 h (in vivo [27]): 4.3 µM·h; half-life at 24 h (in vivo [28]): 3.36 h; Vd at 24 h (in vivo [29]): 1.91 L/kg
Cc1c(N2CC[C@@H](C3(N)CC3)C2)c(F)cc2cc(C(=O)O)c(=O)n(C3CC3)c12	0.25 (≈ 0.649 µM)	> 100	1 (≈ 2.59 µM)	0.06 (≈ 0.156 µM)	5.1	0.5 (≈ 1.3 µM)	≤ 0.03	0.21	0.3	0.49	> 100	623 (≈ 1620 µM)	23.1			-0.34					half-life at 24 h (in vivo [30]): 2.56 h; efflux ratio (in vitro [10]): 0.91; Vd at 24 h (in vivo [31]): 0.75 L/kg; Cmax at 24 h (in vivo [32]): 1710 nM; bioavailability at 24 h (in vivo [33]): 70%; Tmax at 24 h (in vivo [34]): 0.67 h; AUC(0-inf) at 24 h (in vivo [35]): 5.85 µM·h
Cc1c(N2CCC(C3(N)CC3)C2)c(F)cc2c(CC(=O)N(C)C)cc(=O)n(C3CC3)c12 (stereo not drawn)			1 (≈ 2.34 µM)	2 (≈ 4.69 µM)	8.5			0.57	0.33	0.58				78	3.3	0.27	0.26	32.5	1.61	1.17	clearance at 24 h (in vivo [14]): 49.3 mL/min/kg
Cc1c(N2CCC(C3(N)CC3)C2)c(F)cc2c(Cc3n[nH]c(=O)o3)cc(=O)n(C3CC3)c12 (stereo not drawn)			0.5 (≈ 1.14 µM)	1 (≈ 2.28 µM)				0.27	0.15	0.4				51	1.3	0.24	0.12	14.9	0.99	0.5	pKa (physchem [36]): 7.2
C[C@H]1COc2c(N3CC4CC(F)(F)C[C@@H](N)[C@H]4C3)c(F)cc3cc(C(=O)O)c(=O)n1c23 (single isomer, unassigned)			0.06 (≈ 0.137 µM)	≤ 0.03	5.1			0.18	0.42	0.41						-0.26					Tmax at 24 h (in vivo [37]): 2 h; Cmax at 24 h (in vivo [38]): 1700 nM; half-life at 24 h (in vivo [39]): 3.46 h

From ChEMBL document CHEMBL4808184, “Discovery and Optimization of DNA Gyrase and Topoisomerase IV Inhibitors with Potent Activity against Fluoroquinolone-Resistant Gram-Positive Bacteria” (J Med Chem, 2021)
